{"source": "patent US9492471B2", "about": "“Methods of treating a disease or disorder associated with Bruton'S Tyrosine Kinase” (Celgene Avilomics Research, Inc., priority 2013, dated 2016)", "assay_in_all_cases": "HotSpot kinase profiling", "type_in_all_cases": "biochemical", "key": {"SRPK2": {"target": "T1, SRPK2 (Homo sapiens, UniProt P78362)", "T1 construct": "purchased Reaction Biology Corp", "T1 sequence (P78362 whole entry)": "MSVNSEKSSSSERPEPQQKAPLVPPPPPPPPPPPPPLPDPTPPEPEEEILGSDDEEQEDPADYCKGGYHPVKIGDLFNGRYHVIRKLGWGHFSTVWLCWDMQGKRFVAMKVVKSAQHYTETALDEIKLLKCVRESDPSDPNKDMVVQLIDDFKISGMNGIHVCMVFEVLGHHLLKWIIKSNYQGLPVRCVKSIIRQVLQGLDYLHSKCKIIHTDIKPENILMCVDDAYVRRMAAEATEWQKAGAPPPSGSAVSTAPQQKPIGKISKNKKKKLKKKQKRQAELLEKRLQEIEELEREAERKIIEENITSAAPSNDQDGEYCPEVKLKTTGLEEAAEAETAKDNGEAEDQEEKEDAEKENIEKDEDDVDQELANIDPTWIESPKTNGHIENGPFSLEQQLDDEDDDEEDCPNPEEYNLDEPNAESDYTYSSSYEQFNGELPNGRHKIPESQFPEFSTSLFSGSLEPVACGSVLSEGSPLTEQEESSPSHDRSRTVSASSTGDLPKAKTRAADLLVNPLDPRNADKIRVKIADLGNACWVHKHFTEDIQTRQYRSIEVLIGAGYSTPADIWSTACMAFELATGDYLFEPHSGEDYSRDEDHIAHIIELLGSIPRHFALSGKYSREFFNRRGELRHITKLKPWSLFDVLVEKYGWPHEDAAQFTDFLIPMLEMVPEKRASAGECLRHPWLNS", "how_it_was_run": "(§1)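 Activity is measured by radiolabel transfer captured on P81 filters after a 2 h room-temperature reaction of kinase, substrate and cofactors. Values are percent inhibition against DMSO.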"}, "CAMK1g": {"target": "T2, CAMK1g (Homo sapiens, UniProt Q96NX5)", "T2 construct": "purchased Reaction Biology Corp", "T2 sequence (Q96NX5 whole entry)": "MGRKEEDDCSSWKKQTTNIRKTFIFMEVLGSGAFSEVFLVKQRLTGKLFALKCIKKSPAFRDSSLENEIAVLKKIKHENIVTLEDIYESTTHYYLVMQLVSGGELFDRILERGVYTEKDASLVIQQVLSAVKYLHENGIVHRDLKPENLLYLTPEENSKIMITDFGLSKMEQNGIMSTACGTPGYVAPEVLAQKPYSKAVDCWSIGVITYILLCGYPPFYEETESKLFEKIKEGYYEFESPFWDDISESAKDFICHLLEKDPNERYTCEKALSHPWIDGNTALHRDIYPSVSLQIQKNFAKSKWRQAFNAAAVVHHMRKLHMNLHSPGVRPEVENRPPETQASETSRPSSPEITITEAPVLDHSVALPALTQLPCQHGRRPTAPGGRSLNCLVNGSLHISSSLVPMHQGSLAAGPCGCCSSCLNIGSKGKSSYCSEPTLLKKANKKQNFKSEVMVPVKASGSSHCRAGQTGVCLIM", "how_it_was_run": "as §1"}, "TESK1": {"target": "T3, TESK1 (Homo sapiens, UniProt Q15569)", "T3 construct": "purchased Reaction Biology Corp", "T3 sequence (Q15569 whole entry)": "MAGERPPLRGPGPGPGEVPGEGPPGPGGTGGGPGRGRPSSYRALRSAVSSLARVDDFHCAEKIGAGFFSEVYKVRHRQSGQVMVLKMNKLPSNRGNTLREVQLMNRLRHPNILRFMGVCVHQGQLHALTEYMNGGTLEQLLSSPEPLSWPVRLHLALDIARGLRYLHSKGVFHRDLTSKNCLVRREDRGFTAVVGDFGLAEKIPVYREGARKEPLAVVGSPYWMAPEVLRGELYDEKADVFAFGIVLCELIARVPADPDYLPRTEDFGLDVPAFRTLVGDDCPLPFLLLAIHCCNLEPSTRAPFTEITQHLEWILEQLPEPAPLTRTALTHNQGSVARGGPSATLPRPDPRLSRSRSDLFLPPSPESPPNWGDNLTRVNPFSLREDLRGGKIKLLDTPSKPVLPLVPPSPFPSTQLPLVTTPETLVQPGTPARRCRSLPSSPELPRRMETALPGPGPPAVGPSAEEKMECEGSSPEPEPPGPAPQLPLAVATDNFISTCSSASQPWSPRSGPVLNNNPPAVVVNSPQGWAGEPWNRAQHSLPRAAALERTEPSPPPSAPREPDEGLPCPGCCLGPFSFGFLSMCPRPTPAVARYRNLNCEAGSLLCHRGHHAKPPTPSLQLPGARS", "how_it_was_run": "as §1"}, "P70S6K/RPS6KB1": {"target": "T4, P70S6K/RPS6KB1 (Homo sapiens, UniProt P23443)", "T4 construct": "purchased Reaction Biology Corp", "T4 sequence (P23443 whole entry)": "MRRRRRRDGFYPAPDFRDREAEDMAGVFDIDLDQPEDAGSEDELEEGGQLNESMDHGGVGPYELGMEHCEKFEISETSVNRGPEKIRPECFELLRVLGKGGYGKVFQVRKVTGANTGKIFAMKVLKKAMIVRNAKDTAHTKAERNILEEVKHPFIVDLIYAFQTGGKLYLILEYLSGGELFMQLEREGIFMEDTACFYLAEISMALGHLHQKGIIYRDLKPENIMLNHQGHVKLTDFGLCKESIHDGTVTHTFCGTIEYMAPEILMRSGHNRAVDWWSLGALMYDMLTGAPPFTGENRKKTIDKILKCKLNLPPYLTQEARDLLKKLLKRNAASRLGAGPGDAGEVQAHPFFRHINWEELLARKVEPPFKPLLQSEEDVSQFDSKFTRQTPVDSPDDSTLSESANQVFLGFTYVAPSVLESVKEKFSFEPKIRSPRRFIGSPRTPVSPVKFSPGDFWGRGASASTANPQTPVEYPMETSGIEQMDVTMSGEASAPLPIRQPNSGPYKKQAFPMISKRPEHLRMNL", "how_it_was_run": "as §1"}, "TNK1": {"target": "T5, TNK1 (Homo sapiens, UniProt Q13470)", "T5 construct": "purchased Reaction Biology Corp", "T5 sequence (Q13470 1-666)": "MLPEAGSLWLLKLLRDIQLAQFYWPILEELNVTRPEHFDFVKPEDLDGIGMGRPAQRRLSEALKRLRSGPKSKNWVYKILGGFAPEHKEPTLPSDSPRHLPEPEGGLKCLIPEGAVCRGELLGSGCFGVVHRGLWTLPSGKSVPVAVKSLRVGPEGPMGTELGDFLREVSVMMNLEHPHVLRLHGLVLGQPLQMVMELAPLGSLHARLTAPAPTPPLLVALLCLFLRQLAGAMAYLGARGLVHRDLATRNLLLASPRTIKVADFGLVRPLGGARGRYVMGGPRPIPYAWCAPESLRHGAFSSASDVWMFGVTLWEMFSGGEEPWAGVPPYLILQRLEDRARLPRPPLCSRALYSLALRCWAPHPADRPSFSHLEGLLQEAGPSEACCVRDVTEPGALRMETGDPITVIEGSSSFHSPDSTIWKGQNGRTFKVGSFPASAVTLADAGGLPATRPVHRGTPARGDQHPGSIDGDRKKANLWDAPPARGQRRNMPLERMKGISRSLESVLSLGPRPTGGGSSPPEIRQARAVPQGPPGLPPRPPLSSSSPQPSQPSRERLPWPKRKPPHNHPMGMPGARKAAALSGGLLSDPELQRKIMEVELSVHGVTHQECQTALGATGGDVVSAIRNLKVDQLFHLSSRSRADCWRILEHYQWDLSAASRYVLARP", "how_it_was_run": "as §1"}, "CAMK4": {"target": "T6, CAMK4 (Homo sapiens, UniProt Q16566)", "T6 construct": "purchased Reaction Biology Corp", "T6 sequence (Q16566 1-473)": "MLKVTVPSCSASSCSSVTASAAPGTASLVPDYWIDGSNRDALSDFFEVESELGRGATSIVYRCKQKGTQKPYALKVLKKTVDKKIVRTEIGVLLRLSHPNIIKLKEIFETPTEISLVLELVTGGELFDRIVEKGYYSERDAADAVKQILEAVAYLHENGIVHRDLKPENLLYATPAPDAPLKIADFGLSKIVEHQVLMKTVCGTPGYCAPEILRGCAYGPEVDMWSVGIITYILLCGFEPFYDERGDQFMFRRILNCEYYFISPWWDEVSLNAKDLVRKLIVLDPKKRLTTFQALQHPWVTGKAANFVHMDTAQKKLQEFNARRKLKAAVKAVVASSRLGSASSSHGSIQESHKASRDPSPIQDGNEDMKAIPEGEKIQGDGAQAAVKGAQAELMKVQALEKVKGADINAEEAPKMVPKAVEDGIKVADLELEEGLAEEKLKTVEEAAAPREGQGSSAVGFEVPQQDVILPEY", "how_it_was_run": "as §1"}, "ALK": {"target": "T7, ALK (Homo sapiens, UniProt Q9UM73)", "T7 construct": "purchased Reaction Biology Corp", "T7 sequence (Q9UM73 19-1620)": "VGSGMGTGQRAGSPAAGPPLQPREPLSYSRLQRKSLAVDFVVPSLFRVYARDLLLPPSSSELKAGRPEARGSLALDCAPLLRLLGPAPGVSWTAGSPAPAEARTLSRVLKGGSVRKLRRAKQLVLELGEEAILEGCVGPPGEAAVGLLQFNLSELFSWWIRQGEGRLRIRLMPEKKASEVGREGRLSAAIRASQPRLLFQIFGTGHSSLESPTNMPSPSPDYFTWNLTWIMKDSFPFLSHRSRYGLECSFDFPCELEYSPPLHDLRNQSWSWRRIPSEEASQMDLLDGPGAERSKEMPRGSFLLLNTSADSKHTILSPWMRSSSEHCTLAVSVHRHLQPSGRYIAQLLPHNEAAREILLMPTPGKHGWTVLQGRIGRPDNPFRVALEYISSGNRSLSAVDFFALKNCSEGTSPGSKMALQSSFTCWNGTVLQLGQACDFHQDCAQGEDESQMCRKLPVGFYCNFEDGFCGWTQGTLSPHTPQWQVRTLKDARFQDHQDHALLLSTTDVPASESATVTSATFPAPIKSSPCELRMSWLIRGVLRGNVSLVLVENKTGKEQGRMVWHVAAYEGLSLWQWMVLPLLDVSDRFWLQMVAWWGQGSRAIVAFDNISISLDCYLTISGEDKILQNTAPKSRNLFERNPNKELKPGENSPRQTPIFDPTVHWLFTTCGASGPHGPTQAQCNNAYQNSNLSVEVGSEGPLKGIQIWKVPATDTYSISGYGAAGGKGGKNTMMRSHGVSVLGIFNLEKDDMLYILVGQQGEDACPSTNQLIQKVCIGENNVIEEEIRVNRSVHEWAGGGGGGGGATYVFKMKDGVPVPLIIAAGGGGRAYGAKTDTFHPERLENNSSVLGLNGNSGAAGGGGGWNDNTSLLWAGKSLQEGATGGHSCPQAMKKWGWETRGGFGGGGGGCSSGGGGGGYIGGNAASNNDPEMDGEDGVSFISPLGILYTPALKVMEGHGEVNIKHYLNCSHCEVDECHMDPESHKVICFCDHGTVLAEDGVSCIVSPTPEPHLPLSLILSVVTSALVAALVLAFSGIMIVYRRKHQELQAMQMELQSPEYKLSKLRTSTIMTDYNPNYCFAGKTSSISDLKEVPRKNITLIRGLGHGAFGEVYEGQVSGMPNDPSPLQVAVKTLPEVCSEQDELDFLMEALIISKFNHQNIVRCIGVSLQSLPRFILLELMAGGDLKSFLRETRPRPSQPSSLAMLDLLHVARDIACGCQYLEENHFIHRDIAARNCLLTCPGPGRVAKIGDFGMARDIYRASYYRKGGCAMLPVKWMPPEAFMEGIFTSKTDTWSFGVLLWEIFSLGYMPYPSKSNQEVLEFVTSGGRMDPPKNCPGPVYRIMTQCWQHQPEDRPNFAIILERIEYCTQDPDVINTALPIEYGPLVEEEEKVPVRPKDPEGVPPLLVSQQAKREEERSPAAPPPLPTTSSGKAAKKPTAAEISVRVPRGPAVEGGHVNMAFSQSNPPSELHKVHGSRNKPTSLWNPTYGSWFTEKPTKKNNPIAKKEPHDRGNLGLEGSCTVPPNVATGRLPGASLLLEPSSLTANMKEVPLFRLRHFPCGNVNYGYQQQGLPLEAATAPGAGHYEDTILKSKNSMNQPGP", "how_it_was_run": "as §1"}, "[1]": {"conditions": "read-out: % Enzyme Activity (relative to DMSO controls) Run 1"}, "[2]": {"conditions": "read-out: % Enzyme Activity (relative to DMSO controls) Run 2"}}, "note": "Where two headings read alike, the source gives them in different places."}
{"smiles": "C=CC(=O)Nc1cccc(Nc2nc(Nc3ccc(OCCOC)c(F)c3)ncc2F)c1", "note": "[Compound 2]", "values": [{"measurement": "inhibition at 3 µM", "setting": "SRPK2", "result": 9.73, "unit": "%"}, {"measurement": "remaining activity at 3 µM", "setting": "SRPK2; [1]", "result": 90.9, "unit": "%"}, {"measurement": "remaining activity at 3 µM", "setting": "SRPK2; [2]", "result": 89.6, "unit": "%"}, {"measurement": "inhibition at 3 µM", "setting": "CAMK1g", "result": -0.72, "unit": "%"}, {"measurement": "remaining activity at 3 µM", "setting": "CAMK1g; [1]", "result": 100, "unit": "%"}, {"measurement": "remaining activity at 3 µM", "setting": "CAMK1g; [2]", "result": 101, "unit": "%"}, {"measurement": "inhibition at 3 µM", "setting": "TESK1", "result": 2.13, "unit": "%"}, {"measurement": "remaining activity at 3 µM", "setting": "TESK1; [1]", "result": 97.2, "unit": "%"}, {"measurement": "remaining activity at 3 µM", "setting": "TESK1; [2]", "result": 98.5, "unit": "%"}, {"measurement": "inhibition at 3 µM", "setting": "P70S6K/RPS6KB1", "result": 16.5, "unit": "%"}, {"measurement": "remaining activity at 3 µM", "setting": "P70S6K/RPS6KB1; [1]", "result": 85.9, "unit": "%"}, {"measurement": "remaining activity at 3 µM", "setting": "P70S6K/RPS6KB1; [2]", "result": 81, "unit": "%"}, {"measurement": "inhibition at 3 µM", "setting": "TNK1", "result": 83.7, "unit": "%"}, {"measurement": "remaining activity at 3 µM", "setting": "TNK1; [1]", "result": 15.9, "unit": "%"}, {"measurement": "remaining activity at 3 µM", "setting": "TNK1; [2]", "result": 16.6, "unit": "%"}, {"measurement": "inhibition at 3 µM", "setting": "CAMK4", "result": -2.26, "unit": "%"}, {"measurement": "remaining activity at 3 µM", "setting": "CAMK4; [1]", "result": 102, "unit": "%"}, {"measurement": "remaining activity at 3 µM", "setting": "CAMK4; [2]", "result": 102, "unit": "%"}, {"measurement": "inhibition at 3 µM", "setting": "ALK", "result": 16.9, "unit": "%"}, {"measurement": "remaining activity at 3 µM", "setting": "ALK; [1]", "result": 82.5, "unit": "%"}, {"measurement": "remaining activity at 3 µM", "setting": "ALK; [2]", "result": 83.6, "unit": "%"}]}
